According to PMC6522510 (Nature Communications, 2019):

Key:
Parameters in all cases: species or system AML cell lines (8); Primary HTS, single concentration about 10 uM, Cell Titer Glo viability; log10 luminescence, per cent inhibition relative to cycloheximide control
Conditions in all cases: 72 h, relative to cycloheximide control, log10 luminescence; inhibitor
[1] = system: MOLM-13
[2] = system: CMK
[3] = system: CHRF288-11
[4] = system: ML-2
[5] = system: U937
[6] = system: CMS
[7] = system: M07e
[8] = system: MV4-11

| Compound | MOLM-13 %inh [1] [%] | CMK %inh [2] [%] | CHRF288-11 %inh [3] [%] | ML-2 %inh [4] [%] | U937 %inh [5] [%] | CMS %inh [6] [%] | M07e %inh [7] [%] | MV4-11 %inh [8] [%] |
| --- | --- | --- | --- | --- | --- | --- | --- | --- |
| c1cc(-c2cnn3nc(N4CCOCC4)ccc23)nc(NC2CC2)n1 [SJ000573092-1, U17157/98/7] | 12.47 | -4.251 | -0.2849 | 1.098 | 4.896 | -2.802 | 1.021 | 16.51 |
| CS(=O)(=O)CCNCc1ccc(-c2ccc3ncnc(Nc4ccc(OCc5ccccc5)cc4)c3c2)o1 [SJ000573093-1, R1325/200/3] | 25.45 | 1.449 | 1.417 | 1.913 | -1.059 | 0.8735 | 6.213 | 19.4 |
| COC(=O)Nc1nc2ccc(S(=O)(=O)c3ccc(NC(=O)Nc4cc(C(F)(F)F)ccc4F)cc3)cc2[nH]1 [SJ000573094-1, T229/157/1] | 1.464 | 2.078 | 9.928 | -2.541 | 1.083 | 3.097 | 3.593 | -0.02364 |
| CN(C)c1cc2c(Nc3ccc4nc(Cc5ccccc5)[nH]c4c3)ncnc2cn1 [SJ000573096-1, R142/81/1] | 19.45 | 4.629 | -0.8109 | -0.4937 | -0.02909 | 0.4943 | -6.495 | 3.394 |
| Clc1ccc(-c2nn3ncccc3c2-c2ccnc(Nc3ccccc3)n2)cc1 [SJ000573097-1, U17838/189/2] | 0.7466 | 3.667 | 6.42 | -2.244 | -1.31 | 3.744 | -1.226 | 3.385 |
| Cc1ccc(NC(=O)CC2CC2)cc1-c1ccc(C(=O)NCC2CC2)cc1 [SJ000573098-1, R7387/20/3] | 0.2753 | 4.183 | 2.428 | -2.089 | 1.321 | 1.599 | -0.8105 | 0.255 |
| CN(c1ccc(NC(=O)Nc2c(Cl)cccc2Cl)cc1)c1ccnc(Nc2cccc(CS(C)(=O)=O)c2)n1 [SJ000573099-1, U17983/31/1] | 85.25 | 37.49 | 15.56 | 37.92 | 19.94 | 10.65 | 50.22 | 78.59 |
| CCc1nn2ncccc2c1-c1ccnc(NC2CC2)n1 [SJ000573100-1, U16767/17/1] | 5.368 | -4.45 | 0.1094 | 0.1681 | 0.5788 | 3.597 | 1.664 | 0.7749 |
| COc1cc2ncnc(Nc3ccc4c(cnn4Cc4ccccc4)c3)c2cc1OC [SJ000573101-1, R143/104/1] | 25.02 | 0.8373 | 5.092 | -2.157 | 6.042 | 32.19 | 1.834 | 12.83 |
| CCS(=O)(=O)c1ccc(OC)c(Nc2nccc(N(C)c3ccc4c(C)n[nH]c4c3)n2)c1 [SJ000573103-1, U20513/4/2] | 9.892 | 6.86 | 5.806 | -1.801 | 1.879 | 9.95 | 2.221 | 5.714 |
| [O-][S+]1CCN(Cc2ccc(-c3ccc4ncnc(Nc5ccc(OCc6ccccc6)c(Cl)c5)c4c3)o2)CC1 [SJ000573105-1, U14859/143/2] | 4.138 | 4.729 | 0.5474 | -0.9946 | 1.842 | -1.021 | -0.2789 | 5.18 |
| CS(=O)(=O)CCNCc1ccc(-c2ccc3ncnc(Nc4ccc(OCc5cccc(C(F)(F)F)c5)cc4)c3c2)o1 [SJ000573107-1, U14801/49/2] | 82.16 | 3.779 | 2.523 | 1.894 | -2.16 | 0.378 | -0.9182 | 64.67 |
| CS(=O)(=O)Nc1ccc(-c2cc(-c3ccccc3)cc(C(N)=O)c2N)cc1 [SJ000573108-1, R12070/86/1] | -0.8297 | -4.619 | 2.153 | -0.5203 | -2.496 | -2.317 | 0.06792 | 0.1875 |
| N#Cc1ccc(Oc2nccc(-c3c(-c4ccc(F)cc4)ncn3C3CCNCC3)n2)cc1 [SJ000573110-1, JB27026-057C1] | 1.125 | -0.241 | 0.2466 | 1.756 | -2.466 | -2.544 | 7.948 | -1.125 |
| COc1c(C(N)=O)cc(-c2ccc(Cl)cc2)cc1-c1ccc(S(N)(=O)=O)cc1 [SJ000573112-1, R12706/72/1] | 6.365 | 7.525 | -3.227 | 3.182 | 1.708 | 5.358 | -1.128 | -1.028 |
| CS(=O)(=O)CCNCc1cc(-c2cc3c(Nc4ccc(OCc5cccc(F)c5)c(Cl)c4)ncnc3s2)cs1 [SJ000573113-1, U20258/167/2] | 4.183 | 4.188 | -4.074 | -1.098 | 1.681 | 1.969 | 1.088 | 1.359 |
| COc1cccc(/C=N/Nc2ncnc3c2cnn3-c2cccc(OC)c2)c1 [SJ000573114-1, U19125/70/2] | 0.5296 | 1.014 | -4.16 | -2.362 | -1.619 | 0.5792 | -0.7733 | -0.9072 |
| COc1cc(Nc2ncc(-c3ccccc3)o2)cc(OC)c1 [SJ000573115-1, U21834/32/1] | 74.91 | 3.561 | -9.037 | 2.252 | 0.9564 | -1.309 | 1.992 | 75.56 |
| O=S(=O)(CCOCc1ccc(-c2ccc3ncnc(Nc4ccc(OCc5cccc(F)c5)c(Cl)c4)c3c2)o1)c1ccccc1 [SJ000573116-1, U15872/4/1] | -1.247 | -5.52 | -0.6594 | -0.1863 | -1.869 | 1.936 | -2.095 | 2.149 |
